Test results: patent US12077503B2, “Substituted cyclic amides and their use as herbicides” (FMC CORPORATION, priority 2015, dated 2024)
Read-outs that look alike come from different tables or passages of the source.

Legend:
Test in all cases: Test A postemergence
Assay type in all cases: in vivo
[1] = system: pigweed (Amaranthus retroflexus); details: Amaranthus retroflexus, post-emergence, 240 h, postemergence; for pest or weed control at 125 g/ha: 125 g ai/ha; for pest or weed control at 500 g/ha: 500 g ai/ha, 0 to 100 scale, 0 is no effect, 100 is complete control
How it was run: (§1)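 Ratings of 0 (no effect) to 100 (complete control) come from visual comparison with untreated controls roughly 10 d after treatment. Test chemicals, formulated in a non-phytotoxic solvent mixture with surfactant, were applied either as a preemergence directed soil spray on seeded soil or postemergence to one- to two-leaf plants 2 to 10 cm tall.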

[2] = system: Galium (catchweed bedstraw, Galium aparine); details: Galium, post-emergence, 240 h, postemergence; for pest or weed control at 125 g/ha: 125 g ai/ha; for pest or weed control at 500 g/ha: 500 g ai/ha, 0 to 100 scale, 0 is no effect, 100 is complete control
How it was run: as §1

[3] = system: wheat (Triticum aestivum); details: Triticum aestivum, post-emergence, 240 h, postemergence; for plant injury at 125 g/ha: 125 g ai/ha; for plant injury at 500 g/ha: 500 g ai/ha, 0 to 100 scale, 0 is no effect, 100 is complete control
How it was run: as §1

[4] = system: ryegrass, Italian (Italian ryegrass, Lolium multiflorum); details: Lolium multiflorum, post-emergence, 240 h, postemergence; for pest or weed control at 125 g/ha: 125 g ai/ha; for pest or weed control at 500 g/ha: 500 g ai/ha, 0 to 100 scale, 0 is no effect, 100 is complete control
How it was run: as §1

corn (Zea mays) = details: Zea mays, post-emergence, 240 h, postemergence; for plant injury at 125 g/ha: 125 g ai/ha; for plant injury at 500 g/ha: 500 g ai/ha, 0 to 100 scale, 0 is no effect, 100 is complete control
How it was run: as §1

[5] = system: blackgrass (Alopecurus myosuroides); details: Alopecurus myosuroides, post-emergence, 240 h, postemergence; for pest or weed control at 125 g/ha: 125 g ai/ha; for pest or weed control at 500 g/ha: 500 g ai/ha, 0 to 100 scale, 0 is no effect, 100 is complete control
How it was run: as §1

[6] = visual injury on 0 to 100 scale (0 no effect, 100 complete control), approx. 10 d, read-out: Pigweed plant response rating
[7] = read-out: Pigweed plant response rating
[8] = visual injury on 0 to 100 scale (0 no effect, 100 complete control), approx. 10 d, read-out: Galium plant response rating
[9] = read-out: Galium plant response rating
[10] = visual injury on 0 to 100 scale (0 no effect, 100 complete control), approx. 10 d, read-out: Wheat plant response rating
[11] = read-out: Wheat plant response rating
[12] = visual injury on 0 to 100 scale (0 no effect, 100 complete control), approx. 10 d, read-out: Ryegrass, Italian plant response rating
[13] = read-out: Ryegrass, Italian plant response rating
[14] = visual injury on 0 to 100 scale (0 no effect, 100 complete control), approx. 10 d, read-out: Corn plant response rating
[15] = read-out: Corn plant response rating
[16] = visual injury on 0 to 100 scale (0 no effect, 100 complete control), approx. 10 d, read-out: Blackgrass plant response rating
[17] = read-out: Blackgrass plant response rating

SMILES	pest or weed control at 125 g/ha [1, 6]	pest or weed control at 500 g/ha [1, 7]	pest or weed control at 125 g/ha [2, 8]	pest or weed control at 500 g/ha [2, 9]	plant injury at 125 g/ha [3, 10]	plant injury at 500 g/ha [3, 11]	pest or weed control at 125 g/ha [4, 12]	pest or weed control at 500 g/ha [4, 13]	plant injury at 125 g/ha (corn (Zea mays); [14])	plant injury at 500 g/ha (corn (Zea mays); [15])	pest or weed control at 125 g/ha [5, 16]	pest or weed control at 500 g/ha [5, 17]	pest or weed control at 125 g/ha ([1]; visual injury vs untreated controls after approx. 10 d, 0 = no effect, 100 = complete control, read-out: Pigweed plant response rating (0 to 100 scale))	pest or weed control at 125 g/ha ([2]; visual injury vs untreated controls after approx. 10 d, 0 = no effect, 100 = complete control, read-out: Galium plant response rating (0 to 100 scale))	plant injury at 125 g/ha ([3]; visual injury vs untreated controls after approx. 10 d, 0 = no effect, 100 = complete control, read-out: Wheat plant response rating (0 to 100 scale))	pest or weed control at 125 g/ha ([4]; visual injury vs untreated controls after approx. 10 d, 0 = no effect, 100 = complete control, read-out: Ryegrass, Italian plant response rating (0 to 100 scale))	plant injury at 125 g/ha (corn (Zea mays); visual injury vs untreated controls after approx. 10 d, 0 = no effect, 100 = complete control, read-out: Corn plant response rating (0 to 100 scale))	pest or weed control at 125 g/ha ([5]; visual injury vs untreated controls after approx. 10 d, 0 = no effect, 100 = complete control, read-out: Blackgrass plant response rating (0 to 100 scale))
CN1C[C@H](c2cc(F)cc(F)c2)[C@@H](C(=O)Nc2ccncc2F)C1=O [Compound 1095]	0%	0%	0%	0%	0%	0%	0%	0%	0%	0%	0%	0%	–	–	–	–	–	–
CN1C[C@H](c2cc(F)cc(F)c2)[C@@H](C(=O)Nc2cnccc2Cl)C1=O [Compound 1096]	0%	0%	0%	0%	0%	0%	0%	0%	0%	0%	0%	0%	–	–	–	–	–	–
Cc1cc([C@H]2CN(C)C(=O)[C@@H]2C(=O)Nc2ccc(F)cc2F)ccc1Br [Compound 1100]	0%	0%	0%	20%	0%	20%	20%	20%	0%	20%	0%	20%	–	–	–	–	–	–
Cc1cc([C@H]2CN(C)C(=O)[C@@H]2C(=O)Nc2ccc(F)c(F)c2F)ccc1Br [Compound 1101]	30%	50%	50%	60%	0%	50%	20%	60%	30%	70%	0%	30%	–	–	–	–	–	–
Cc1cc([C@H]2CN(C)C(=O)[C@@H]2C(=O)Nc2ccccc2S(C)(=O)=O)ccc1Br [Compound 1102]	0%	0%	0%	30%	20%	50%	0%	30%	20%	60%	20%	50%	–	–	–	–	–	–
CN1C[C@H](c2cscn2)[C@@H](C(=O)Nc2ccccc2F)C1=O [Compound 1112]	0%	0%	0%	0%	0%	0%	0%	0%	0%	0%	0%	0%	–	–	–	–	–	–
CN1C[C@H](c2cc(C(F)F)cs2)[C@@H](C(=O)Nc2ccccc2F)C1=O [Compound 1120]	0%	20%	40%	60%	20%	50%	20%	40%	0%	60%	30%	50%	–	–	–	–	–	–
CSc1ccccc1NC(=O)[C@H]1C(=O)NC[C@@H]1c1cc(F)c(F)c(F)c1 [Compound 1124]	0%	60%	50%	60%	0%	0%	0%	0%	0%	0%	0%	0%	–	–	–	–	–	–
Cc1c(F)cccc1NC(=O)[C@H]1C(=O)NC[C@@H]1c1cc(F)c(F)c(F)c1 [Compound 1125]	0%	0%	40%	50%	30%	40%	0%	60%	30%	60%	40%	50%	–	–	–	–	–	–
CN1C[C@H](c2ccc3c(c2)OCO3)[C@@H](C(=O)Nc2cccc(F)c2F)C1=O [Compound 1126]	0%	30%	50%	40%	50%	70%	30%	50%	60%	90%	20%	40%	–	–	–	–	–	–
O=C1NC[C@H](c2ccc3c(c2)OCO3)[C@H]1C(=O)Nc1cccc(F)c1C(F)(F)F [Compound 1127]	0%	0%	0%	40%	0%	0%	0%	0%	0%	0%	0%	20%	–	–	–	–	–	–
O=C1NC[C@H](c2ccc(F)c(OC(F)(F)C(F)F)c2)[C@H]1C(=O)Nc1cccc(F)c1F [Compound 1131]	50%	80%	60%	60%	50%	70%	0%	50%	70%	80%	40%	60%	–	–	–	–	–	–
Cc1nc([C@H]2CNC(=O)[C@@H]2C(=O)Nc2cccc(F)c2F)cs1 [Compound 1180]	–	0%	–	0%	–	0%	–	0%	–	0%	–	0%	0%	0%	0%	0%	0%	0%
